Laboratory results from patent publication US8552048B2, “Phosphoramidate alkylator prodrugs for the treatment of cancer” (Threshold Pharmaceuticals, Inc., priority 2006, dated 2013).

How the values were obtained:
[1] = Pharmacokinetics after repeated administration (Q7D×3) to rats; assay type: in vivo; details: rat, plasma; for clearance / AUC / Cmax / half-life / Vd: iv, TH302 in rats; for AUC: read-out: AUC; for Cmax: read-out: Cmax; for half-life: read-out: Half-Life (converted); for Vd: read-out: Vss
Description: (§1) Each rat received a 30 minute infusion once a week for three weeks (Q7D×3).
Br-IPM being capable of reacting with water and a number of other nucleophiles, for HPLC analysis of Br-IPM, the plasma obtained was frozen and treated with NaF and potassium oxalate.

[2] = Pharmacokinetics in CD-1 mice; assay type: in vivo; details: male, CD-1, mouse, plasma, ip, 50 mg/kg, 50 mg/kg i.p., read-out: terminal half-lives (t1/2)
Description: (§2) Pharmacokinetic studies were performed in male CD-1 (50 mg/kg i.p. or orally (p.o.)) or female nude mice (50 mg/kg i.v. or i.p.), male Sprague-Dawley rats (1, 5, 20 and 50 mg/kg i.v. and 100 mg/kg, p.o.), beagle dogs (20 mg/kg, i.v.) and cynomologus monkeys (20 mg/kg i.v.). Plasma TH302 concentrations were analyzed using a LC/MS method and the pharmacokinetic parameters computed using a noncompartmental method. Interspecies scaling was performed according to standard methods.

[3] = system: PC-3 human prostate tumor; test: GFP PC3 prostate orthotopic model; assay type: in vivo, mice
H460 NSCLC cancer cells = test: H460 pleural cavity metastatic tumor model; assay type: in vivo, mice; details: TH302 alone Q3D×5, 100 mg/kg, i.v.
Description: Metastatic tumors were also grown in mice by injecting H460 NSCLC cancer cells into the pleural cavity. Metastases were observed among other organs in the lungs and ovary. […] Thus, TH302 is effective in treatment of metastatic tumors, when administered alone and in combination with another anti cancer agent.

[4] = Pharmacokinetics in beagle dogs (20 mg/kg i.v.); assay type: in vivo; details: dog, plasma, iv
Description: as §2

[5] = Pharmacokinetics after repeated administration (Q7D×3) to dogs; assay type: in vivo; details: dog; for clearance / half-life / AUC / Cmax / Vd: TH302 in dogs; for half-life: read-out: Half-Life (converted); for Cmax: read-out: Cmax; for Vd: read-out: Vss
Excerpt: These changes were reversible.

[6] = Single-dose toxicity in rats; assay type: in vivo
Description: (§3) A single-dose of TH302 was administered to rats and dogs over 30 min in order to achieve a rapid increase to relatively high drug levels. Rats were administered 50, 100, and 200 mg/kg, and dogs at 8, 16 and 32 mg/kg of TH302. […] These changes at the lowest toxicity level were fully reversible within 2 weeks.

[7] = Pharmacokinetics of TH302 in Beagle Dogs (Table 6); assay type: in vivo; details: dog, plasma, intravenous; for half-life: read-out: T½ (converted); for Vd: read-out: Vss
[8] = GLP multiple-dose toxicity study in rats; assay type: in vivo
Description: as §1

[9] = Single-dose toxicity in dogs; assay type: in vivo
Description: as §3

[10] = in vivo, 16 mg/kg Q7D×3, Day 15
[11] = plasma, intravenous, 4 mg/kg Q7D×3, Day 15
[12] = plasma, intravenous, 8 mg/kg Q7D×3, Day 15
[13] = plasma, intravenous, 16 mg/kg Q7D×3, Day 15

SMILES: Cn1c(COP(=O)(NCCBr)NCCBr)cnc1[N+](=O)[O-] [TH302]
- AUC at 15 day ([1]; intravenous, rats, 25 mg/kg dose of TH302, read-out: drug exposure, AUC of TH302): ~2110 ng·h/mL
- clearance ([1]; 12.5 mg/kg Q7D×3, Day 15): 293 mL/min/kg
- AUC ([1]; 12.5 mg/kg Q7D×3, Day 15): 699 ng·h/mL
- Cmax ([1]; 12.5 mg/kg Q7D×3, Day 15): 1210 ng/mL
- half-life ([1]; 12.5 mg/kg Q7D×3, Day 15): 16 min
- Vd ([1]; 12.5 mg/kg Q7D×3, Day 15): 8.71 L/kg
- clearance ([1]; 25 mg/kg Q7D×3, Day 15): 275 mL/min/kg
- AUC ([1]; 25 mg/kg Q7D×3, Day 15): 2110 ng·h/mL
- Cmax ([1]; 25 mg/kg Q7D×3, Day 15): 3640 ng/mL
- half-life ([1]; 25 mg/kg Q7D×3, Day 15): 18.7 min
- Vd ([1]; 25 mg/kg Q7D×3, Day 15): 8.28 L/kg
- clearance ([1]; 50 mg/kg Q7D×3, Day 15): 197 mL/min/kg
- AUC ([1]; 50 mg/kg Q7D×3, Day 15): 3250 ng·h/mL
- Cmax ([1]; 50 mg/kg Q7D×3, Day 15): 5720 ng/mL
- half-life ([1]; 50 mg/kg Q7D×3, Day 15): 20.8 min
- Vd ([1]; 50 mg/kg Q7D×3, Day 15): 5.84 L/kg
- half-life [2]: 7.9 min
- reduction in tumor volume ([3]; compared to final measurements in the vehicle group (day 31)): 84%
- tumor growth delay (TGD) ([3]; single agent, Taxotere 12 mg/kg once a week for two weeks): 16 days
- metastatic tumor mass (H460 NSCLC cancer cells): visible reduction in metastatic tumor mass
- half-life ([4]; read-out: Mean t1/2): 49.2 min
- clearance ([4]; read-out: mean Cl (converted)): 54.7 mL/min/kg
- Vd ([4]; read-out: mean Vss): 1.98 L/kg
- clearance ([5]; in vivo, 4 mg/kg Q7D×3, Day 15): 80.7 mL/min/kg
- half-life ([5]; in vivo, 4 mg/kg Q7D×3, Day 15): 16.3 min
- clearance ([5]; in vivo, 8 mg/kg Q7D×3, Day 15): 72.5 mL/min/kg
- half-life ([5]; in vivo, 8 mg/kg Q7D×3, Day 15): 15.2 min
- AUC [5, 10]: 4260 ng·h/mL
- clearance [5, 10]: 63.7 mL/min/kg
- half-life [5, 10]: 17 min
- AUC [5, 11]: 853 ng·h/mL
- Cmax [5, 11]: 1580 ng/mL
- Vd [5, 11]: 2.1 L/kg
- AUC [5, 12]: 1910 ng·h/mL
- Cmax [5, 12]: 3650 ng/mL
- Vd [5, 12]: 1.78 L/kg
- Cmax [5, 13]: 7100 ng/mL
- Vd [5, 13]: 1.93 L/kg
- AUC at 15 day ([5]; plasma, intravenous, dogs, 8 mg/kg dose of TH302, read-out: drug exposure (AUC of TH302)): ~1910 ng·h/mL
- affected organs at the highest dose level ([6]; 200 mg/kg single dose): bone marrow, kidney, thymus and intestine
- lethality ([6]; single dose over 30 min, highest dose 200 mg/kg): lethality was observed
- primary findings at the lowest toxicity level ([6]; single dose study): reduction in white blood cell counts accompanied only by moderate weight loss in male rats
- time to full reversal of changes at the lowest toxicity level ([6]; single dose study): ≤ 2 weeks
- species specific toxicity at the highest dose ([6]; single dose, 200 mg/kg): rat adipose and spleen
- AUC ([7]; female, Females, 4 mg/kg): 2270 ng·h/mL
- Cmax ([7]; female, Females, 4 mg/kg): 3830 ng/mL
- Tmax ([7]; female, Females, 4 mg/kg): 31 min
- clearance ([7]; female, Females, 4 mg/kg): 29.3 mL/min/kg
- half-life ([7]; female, Females, 4 mg/kg): 16.1 min
- Vd ([7]; female, Females, 4 mg/kg): 0.785 L/kg
- AUC ([7]; female, Females, 8 mg/kg): 3400 ng·h/mL
- Cmax ([7]; female, Females, 8 mg/kg): 6410 ng/mL
- Tmax ([7]; female, Females, 8 mg/kg): 31.5 min
- clearance ([7]; female, Females, 8 mg/kg): 39.7 mL/min/kg
- half-life ([7]; female, Females, 8 mg/kg): 15.1 min
- Vd ([7]; female, Females, 8 mg/kg): 0.974 L/kg
- AUC ([7]; female, Females, 16 mg/kg): 7660 ng·h/mL
- Cmax ([7]; female, Females, 16 mg/kg): 13700 ng/mL
- Tmax ([7]; female, Females, 16 mg/kg): 31 min
- clearance ([7]; female, Females, 16 mg/kg): 34.8 mL/min/kg
- half-life ([7]; female, Females, 16 mg/kg): 16.7 min
- Vd ([7]; female, Females, 16 mg/kg): 0.874 L/kg
- AUC ([7]; female, Females, 32 mg/kg): 9530 ng·h/mL
- Cmax ([7]; female, Females, 32 mg/kg): 18500 ng/mL
- Tmax ([7]; female, Females, 32 mg/kg): 31 min
- clearance ([7]; female, Females, 32 mg/kg): 56.5 mL/min/kg
- half-life ([7]; female, Females, 32 mg/kg): 15.4 min
- Vd ([7]; female, Females, 32 mg/kg): 1.37 L/kg
- AUC ([7]; male, Males, 4 mg/kg): 2330 ng·h/mL
- Cmax ([7]; male, Males, 4 mg/kg): 4160 ng/mL
- Tmax ([7]; male, Males, 4 mg/kg): 37 min
- clearance ([7]; male, Males, 4 mg/kg): 28.3 mL/min/kg
- half-life ([7]; male, Males, 4 mg/kg): 16.1 min
- Vd ([7]; male, Males, 4 mg/kg): 0.822 L/kg
- AUC ([7]; male, Males, 8 mg/kg): 3640 ng·h/mL
- Cmax ([7]; male, Males, 8 mg/kg): 6350 ng/mL
- Tmax ([7]; male, Males, 8 mg/kg): 31.5 min
- clearance ([7]; male, Males, 8 mg/kg): 37.2 mL/min/kg
- half-life ([7]; male, Males, 8 mg/kg): 15.6 min
- Vd ([7]; male, Males, 8 mg/kg): 0.982 L/kg
- AUC ([7]; male, Males, 16 mg/kg): 6200 ng·h/mL
- Cmax ([7]; male, Males, 16 mg/kg): 10800 ng/mL
- Tmax ([7]; male, Males, 16 mg/kg): 31.5 min
- clearance ([7]; male, Males, 16 mg/kg): 43 mL/min/kg
- half-life ([7]; male, Males, 16 mg/kg): 15.5 min
- Vd ([7]; male, Males, 16 mg/kg): 1.1 L/kg
- AUC ([7]; male, Males, 32 mg/kg): 11000 ng·h/mL
- Cmax ([7]; male, Males, 32 mg/kg): 23000 ng/mL
- Tmax ([7]; male, Males, 32 mg/kg): 31.5 min
- clearance ([7]; male, Males, 32 mg/kg): 48.5 mL/min/kg
- half-life ([7]; male, Males, 32 mg/kg): 14.9 min
- Vd ([7]; male, Males, 32 mg/kg): 1.12 L/kg
- human equivalent dose of the minimally toxic dose ([8]; 25 mg/kg rat dose divided by 6.2): about 4 mg/kg
- minimally toxic dose ([8]; rat): 25 mg/kg
- histopathology at the highest dose ([8]; rats, 50 mg/kg Q7D×3): effects on the bone marrow and the tongue with minor effects on the kidney and the uterus
- primary toxicities ([8]; rats, 12.5, 25 and 50 mg/kg, 30 minute infusion Q7D×3): hematologic in nature and were reversible
- affected organs at the highest dose level ([9]; 32 mg/kg single dose): bone marrow, kidney, thymus and intestine
- lethality ([9]; single dose over 30 min, highest dose 32 mg/kg): lethality was observed
- primary findings at the lowest toxicity level ([9]; single dose study): reduction in white blood cell counts
- time to full reversal of changes at the lowest toxicity level ([9]; single dose study): ≤ 2 weeks
